# System: RSV (Long)
# Assay: RSV cytopathic effect (CPE)-based viral replication assay
# Type: cell-based, respiratory syncytial virus (RSV)
# Settings: HEp-2 cells infected with RSV Long at MOI 0.015; 3 days at 37° C.; cell viability by CellTiter-Glo luminescence; read-out: EC50 (nm)
# How it was run: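 HEp-2 cells, 2,500 per well in DMEM with 2% heat-inactivated FBS, treated with 10-point compound dilutions and infected with RSV Long at MOI 0.015. After 3 days at 37 °C, 5% CO2, viability read by CellTiter-Glo luminescence; EC50 derived from CPE data.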
row,SMILES,EC50
1,O=C1CC(c2c(Cn3c(=O)n(C4CC4)c4ccncc43)ncc3ccccc23)CN1 (stereo not shown) [Example 2019],15 nM
2,COC(=O)NC1CC2(C1)C(=O)N(Cc1ncc3ccccc3c1-c1ccc(C#N)nc1)c1ccccc12 (stereo not shown) [Example 84-2],4.5 nM
3,"CS(=O)(=O)Nc1ccc(-c2c(CN3C(=O)C4(CN(C(=O)C5(N)CC5)C4)c4ccccc43)ncc3ccccc23)cc1 [Example 132b, N-(4-(3-((1-(1-aminocyclopropanecarbonyl)-2′-oxospiro[azetidine-3,3′-indolin]-1′-yl)methyl)isoquinolin-4-yl)phenyl)methanesulfonamide]",5.1 nM
4,"O=C1N(Cc2ncc3ccccc3c2-c2ccc(F)nc2)c2ccccc2C12CC(NCCF)C2 (single isomer, unassigned) [Example 87-1, 3-((2-fluoroethyl)amino)-1′-((4-(6-fluoropyridin-3-yl)isoquinolin-3-yl)methyl)spiro[cyclobutane-1,3′-indolin]-2′-one]",21 nM

# Same assay, conditions: human respiratory syncytial virus, HEp-2, 72 h, HEp-2 cells infected with RSV Long at MOI 0.015; 3 days at 37° C.; cell viability by CellTiter-Glo luminescence; read-out: EC50 (nm)
row,SMILES,EC50
1,CNC1(C(=O)N2CC3(C2)C(=O)N(Cc2ncc4ccccc4c2-c2ccc(NS(C)(=O)=O)cn2)c2ccccc23)CC1 [Example 2005],230 nM
2,"O=c1n(Cc2ncc3ccccc3c2CCCCO)c2cnccc2n1C1CN(S(=O)(=O)C2CC2)C1 [Example 34, 1-(1-(cyclopropylsulfonyl)azetidin-3-yl)-3-((4-(4-hydroxybutyl)isoquinolin-3-yl)methyl)-1H-imidazo[4,5-c]pyridin-2(3H)-one]",33 nM
3,COC(=O)N1CC2(C1)C(=O)N(Cc1ncc3cc(C#N)c(F)cc3c1-c1cccnc1)c1ccccc12 [Example 2039],46 nM
4,"COC(=O)N1CC2(C1)C(=O)N(Cc1ncc3ccccc3c1-c1ccc(F)nc1F)c1ccccc12 [Example 96, Methyl 1′-((4-(2,6-difluoropyridin-3-yl)isoquinolin-3-yl)methyl)-2′-oxospiro[azetidine-3,3′-indoline]-1-carboxylate]",2.2 nM
5,"O=C(N1CC2(C1)C(=O)N(Cc1ncc3ccccc3c1-c1cccnc1)c1ccccc12)C(F)(F)F [Example 128, 1′-((4-(Pyridin-3-yl)isoquinolin-3-yl)methyl)-1-(2,2,2-trifluoroacetyl)spiro[azetidine-3,3′-indolin]-2′-one]",20 nM
6,"NCCC(=O)N1CC2(C1)C(=O)N(Cc1ncc3ccccc3c1-c1cccnc1)c1ccccc12 [Example 150, 1-(3-Aminopropanoyl)-1′-((4-(pyridin-3-yl)isoquinolin-3-yl)methyl)spiro[azetidine-3,3′-indolin]-2′-one]",6.6 nM
7,"NC1(CC(=O)N2CCC3(CC2)C(=O)N(Cc2ncc4ccccc4c2-c2cccnc2)c2cnccc23)CC1 [Example 145, 1-(2-(1-Aminocyclopropyl)acetyl)-1′-((4-(pyridin-3-yl)isoquinolin-3-yl)methyl)spiro[piperidine-4,3′-pyrrolo[2,3-c]pyridin]-2′(1′H)-one]",8.1 nM
8,"CNC1(C(=O)N2CC3(C2)C(=O)N(Cc2ncc4ccccc4c2-c2ccc(C(N)=O)nc2)c2ccccc23)CC1 [Example 115c, 5-(3-((1-(1-(methylamino)cyclopropanecarbonyl)-2′-oxospiro[azetidine-3,3′-indolin]-1′-yl)methyl)isoquinolin-4-yl)picolinamide]",15 nM
9,"NC(=O)N1CC2(C1)C(=O)N(Cc1ncc3ccccc3c1-c1ccc(S(N)(=O)=O)cc1)c1ccccc12 [Example 116b, 2′-oxo-1′-((4-(4-sulfamoylphenyl)isoquinolin-3-yl)methyl)spiro[azetidine-3,3′-indoline]-1-carboxamide]",1.3 nM
10,"N#Cc1ccc2c(CCCCO)c(Cn3c(=O)n(C4CC4)c4ccncc43)ncc2c1 [Example 25, 3-((1-cyclopropyl-2-oxo-1H-imidazo[4,5-c]pyridin-3(2H)-yl)methyl)-4-(4-hydroxybutyl)isoquinoline-7-carbonitrile]",280 nM
11,"CS(=O)(=O)N1CC2(C1)C(=O)N(Cc1ncc3cc(Cl)ccc3c1-c1cccnc1)c1cnccc12 [Example 162, 1′-((7-chloro-4-(pyridin-3-yl)isoquinolin-3-yl)methyl)-1-(methylsulfonyl)spiro[azetidine-3,3′-pyrrolo[2,3-c]pyridin]-2′(1′H)-one]",4.8 nM
12,"N#Cc1ccc(-c2c(CN3C(=O)C4(CCN(C(=O)OCCO)CC4)c4ccncc43)ncc3ccccc23)cn1 [Example 68, 2-hydroxyethyl 1′-((4-(6-cyanopyridin-3-yl)isoquinolin-3-yl)methyl)-2′-oxo-1′,2′-dihydrospiro[piperidine-4,3′-pyrrolo[2,3-c]pyridine]-1-carboxylate]",2.5 nM
13,"O=c1n(Cc2ncc3cc(F)ccc3c2CCCCO)c2cnccc2n1C1CC1 [Example 6g, 1-cyclopropyl-3-((7-fluoro-4-(4-hydroxybutyl)isoquinolin-3-yl)methyl)-1H-imidazo[4,5-c]pyridin-2(3H)-one]",41 nM
14,CS(=O)(=O)N1CC2(C1)C(=O)N(Cc1ncc3ccccc3c1-c1ccc(F)nc1)c1ccccc12 [Example 78],0.9 nM
15,CS(=O)(=O)N1CC2(C1)C(=O)N(Cc1ncc3ccccc3c1-c1ccc(F)cc1)c1ccccc12 [Example 74],5.8 nM
16,NC1(C(=O)N2CCC3(CC2)C(=O)N(Cc2ncc4ccccc4c2-c2cncs2)c2cnccc23)CC1 [Example 2024],8.2 nM
17,"NCCCC(=O)N1CC2(C1)C(=O)N(Cc1ncc3ccccc3c1-c1cccnc1)c1ccccc12 [Example 151, 1-(4-Aminobutanoyl)-1′-((4-(pyridin-3-yl)isoquinolin-3-yl)methyl)spiro[azetidine-3,3′-indolin]-2′-one]",2.7 nM
18,"CC(C)(C)c1ccc(-c2c(CN3C(=O)C4(CN(S(C)(=O)=O)C4)c4ccccc43)ncc3ccccc23)cc1 [Example 71, 1′-((4-(4-(Tert-butyl)phenyl)isoquinolin-3-yl)methyl)-1-(methylsulfonyl)spiro[azetidine-3,3′-indolin]-2′-one]",200 nM
19,"CNC1(C(=O)N2CCC3(CC2)C(=O)N(Cc2ncc4ccccc4c2-c2ccc(C(=O)NC4CC4)nc2)c2cnccc23)CC1 [Example 109, N-cyclopropyl-5-(3-((1-(1-(methylamino)cyclopropanecarbonyl)-2′-oxospiro[piperidine-4,3′-pyrrolo[2,3-c]pyridin]-1′(2′H)-yl)methyl)isoquinolin-4-yl)picolinamide]",3.8 nM
20,"CS(=O)(=O)N1CCC(n2c(=O)n(Cc3ncc4ccccc4c3CCCCO)c3cnccc32)CC1 [Example 18c, 3-((4-(4-hydroxybutyl)isoquinolin-3-yl)methyl)-1-(1-(methylsulfonyl)piperidin-4-yl)-1H-imidazo[4,5-c]pyridin-2(3H)-one]",3.4 nM
21,"NC1(C(=O)N2CC3(C2)C(=O)N(Cc2ncc4ccccc4c2-c2cccnc2)c2ccccc23)CC1 [Example 147, 1-(1-aminocyclopropanecarbonyl)-1′-((4-(pyridin-3-yl)isoquinolin-3-yl)methyl)spiro[azetidine-3,3′-indolin]-2′-one]",18 nM
22,"CN1CCN(Cc2ccc3c(CCCCO)c(Cn4c(=O)n(C5CC5)c5ccncc54)ncc3c2)CC1 [Example 43j, 1-Cyclopropyl-3-((4-(4-hydroxybutyl)-7-((4-methylpiperazin-1-yl)methyl)isoquinolin-3-yl)methyl)-1H-imidazo[4,5-c]pyridin-2(3H)-one]",2500 nM
23,"NC(=O)N1CC2(C1)C(=O)N(Cc1ncc3ccccc3c1-c1cccnc1)c1ccccc12 [Example 131, 2′-Oxo-1′-((4-(pyridin-3-yl)isoquinolin-3-yl)methyl)spiro[azetidine-3,3′-indoline]-1-carboxamide]",1.6 nM
24,CS(=O)(=O)N1CC2(C1)C(=O)N(Cc1ncc3ccccc3c1-c1ccc(C#N)cc1)c1ccccc12 [Example 76],2.5 nM
25,"O=c1n(Cc2ncc3ccccc3c2CCCCF)c2cnccc2n1C1CC1 [Example 57, 1-Cyclopropyl-3-((4-(4-fluorobutyl)isoquinolin-3-yl)methyl)-1H-imidazo[4,5-c]pyridin-2(3H)-one]",3.4 nM
26,"CS(=O)(=O)N1CC2(C1)C(=O)N(Cc1ncc3ccccc3c1-c1cccnc1)c1ccccc12 [Example 154, 1-(Methylsulfonyl)-1′-((4-(pyridin-3-yl)isoquinolin-3-yl)methyl)spiro[azetidine-3,3′-indolin]-2′-one]",1.4 nM
27,"NC1(C(=O)N2CCC3(CC2)C(=O)N(Cc2ncc4ccccc4c2-c2cncc(F)c2)c2cnccc23)CC1 [Example 106c, 1-(1-aminocyclopropanecarbonyl)-1′-((4-(5-fluoropyridin-3-yl)isoquinolin-3-yl)methyl)spiro[piperidine-4,3′-pyrrolo[2,3-c]pyridin]-2′(1′H)-one]",3.7 nM
28,N#Cc1ccc(-c2c(CN3C(=O)C4(CN(C(N)=O)C4)c4ccccc43)ncc3ccccc23)cn1 [Example 77],3 nM
29,CC1(S(=O)(=O)N2CC3(C2)C(=O)N(Cc2ncc4ccccc4c2-c2ccc(C#N)nc2)c2ccccc23)CC1 [Example 61],4.4 nM

# Same assay, conditions: human respiratory syncytial virus, HEp-2, 72 h, read-out: EC50 (nm)
row,SMILES,EC50
1,"CC(=O)N1CC2(C1)C(=O)N(Cc1ncc3ccccc3c1-c1cccnc1)c1ccccc12 [Example 153, 1-acetyl-1′-((4-(pyridin-3-yl)isoquinolin-3-yl)methyl)spiro[azetidine-3,3′-indolin]-2′-one]",5.5 nM

# From US20190002436A1, “RESPIRATORY SYNCYTIAL VIRUS INHIBITORS” (MEDIVIR AB, priority 2015, published 2019)
